Measured values reported in patent US20230096766A1, “AMINO ACID HAVING FUNCTIONAL GROUP CAPABLE OF INTERMOLECULAR HYDROGEN BONDING, PEPTIDE COMPOUND CONTAINING SAME AND METHOD FOR PRODUCTION THEREOF” (Chugai Seiyaku Kabushiki Kaisha, priority 2018, published 2023).
*1 amine or outer side, *2 acyl side, *3 side chain or, on linkers, in order; H or OH if unused. Where a SMILES comes first, the peptide text is derived from it. Bridges are numbered along the chain shown (N, C = ends). [ ]: non-standard residue; d: D form. The star is where a group is joined. ξ: configuration not given here. dhPhe(4-CONHMe,3-OMe) = CNC(=O)c1ccc(CC[C@@H](N)C(=O)O)cc1OC; hPhe(3-OMe,4-CONHMe) = CNC(=O)c1ccc(CC[C@H](N)C(=O)O)cc1OC; X17 = CC(C)C[C@@H](C(=O)[*:2])C(C)C(=O)CCCN(C)[*:1]; NMePhe(3-Cl) = CN[C@@H](Cc1cccc(Cl)c1)C(=O)O; ξGln(SO2Me) = CS(=O)(=O)NC(=O)CCC(N)C(=O)O; Tyr(3-F) = N[C@@H](Cc1ccc(O)c(F)c1)C(=O)O; X6 = O=C([C@H](CCCCO)N[*:1])[*:2]; NMeF = CN[C@@H](Cc1ccccc1)C(=O)O; NMeGABA = CN(CCCC(=O)[*:2])[*:1]; NMeL = CN[C@@H](CC(C)C)C(=O)O; Butyl(3R-OH) = C[C@@H](O)CC*; NMeV = CN[C@H](C(=O)O)C(C)C; NMeAbu = CC[C@H](NC)C(=O)O; NMeA = CN[C@@H](C)C(=O)O; Piperidide = C1CCN(*)CC1; dAbu = CC[C@@H](N)C(=O)O; X8 = C1COC[C@@H](C*)N1; Me2NCH2CH2 = CN(C)CC*; NBuGly = CCCCNCC(=O)O; NPrGly = CCCNCC(=O)O; Sar = CNCC(=O)O; tBu = CC(C)(C)*

Experiment: in vitro
Conditions: human, Caco-2, Caco-2

Row | SMILES | Papp [×10⁻⁶ cm/s]
1 | CC(C)C[C@@H]1NC(=O)[C@H](CC(C)C)C(C)C(=O)CCCN(C)C(=O)C[C@@H](C(=O)N2CCCCC2)NC(=O)[C@H](CC(C)C)N(C)C(=O)[C@H](CC(C)C)N(C)C(=O)[C@H](CC(C)C)NC(=O)[C@H](CC(C)C)N(C)C(=O)C(CCC(=O)NS(C)(=O)=O)NC(=O)[C@H](Cc2ccccc2)N(C)C(=O)[C@H](Cc2ccccc2)N(C)C1=O (stereo partly drawn) [pd68] ([X17]L[NMeF][NMeF][ξGln(SO2Me)][NMeL]L[NMeL][NMeL]D-Piperidide; lactam N-10) | 0.1
2 | CCCCN1CC(=O)N(C)[C@@H](Cc2ccccc2)C(=O)NC(CCC(=O)NS(C)(=O)=O)C(=O)N(C)[C@@H](CC(C)C)C(=O)N[C@@H](CC(C)C)C(=O)N(C)CC(=O)N(C)[C@@H](Cc2ccccc2)C(=O)N(C)[C@@H](CC(C)C)C(=O)N[C@@H](CC(C)C)C(=O)N(C)[C@@H](CC(C)C)C(=O)N[C@H](C(=O)N2CCCCC2)CC1=O (stereo partly drawn) [pd70] ([NBuGly][NMeF][ξGln(SO2Me)][NMeL]L[Sar][NMeF][NMeL]L[NMeL]D-Piperidide; lactam N-11) | 0.17
3 | CCCN1CC(=O)N(C)[C@@H](CC(C)C)C(=O)N[C@@H](COCCN(C)C)C(=O)N(C)[C@@H](Cc2ccccc2)C(=O)N(C)[C@@H](C(C)C)C(=O)N[C@H](C(=O)N2CCCCC2)CC(=O)N[C@H](C(C)C)C(=O)N(C)[C@@H](Cc2ccccc2)C(=O)N[C@@H](CC(C)C)C(=O)N(C)[C@@H](CC(C)C)C(=O)N[C@@H]([C@@H](C)O)C1=O [pd52] ([dV][NMeF]L[NMeL]T[NPrGly][NMeL]S(Me2NCH2CH2)[NMeF][NMeV]D-Piperidide; lactam N-11) | 0.12

Same assay, conditions: human, Caco-2, Caco-2 (cm/sec)

Row | SMILES | Papp [×10⁻⁶ cm/s]
4 | CCCN1CC(=O)N(C)[C@@H](CC(C)C)C(=O)N[C@@H](CCCCO)C(=O)N(C)[C@@H](Cc2cccc(Cl)c2)C(=O)N(C)[C@@H](CC(C)C)C(=O)N[C@H](C(=O)N2CCCCC2)CC(=O)N[C@H](CC)C(=O)N(C)[C@@H](Cc2ccccc2)C(=O)N[C@@H](CC(C)C)C(=O)N(C)[C@@H](CC(C)C)C(=O)N[C@@H]([C@@H](C)O)C1=O [Compound B10] ([dAbu][NMeF]L[NMeL]T[NPrGly][NMeL][X6][NMePhe(3-Cl)][NMeL]D-Piperidide; lactam N-11) | 0.25
5 | CC[C@H]1C(=O)N(C)[C@@H](Cc2ccccc2)C(=O)N[C@@H](CC(C)C)C(=O)N(C)[C@@H](CC(C)C)C(=O)N(C)[C@@H](CC(C)C)C(=O)N[C@@H](COC[C@@H]2COCCN2)C(=O)N(C)CC(=O)N(C)[C@@H](CC(C)C)C(=O)N[C@H](C(=O)N2CCCCC2)CC(=O)N(C)[C@@H](C)C(=O)N[C@@H](CC(C)C)C(=O)N1C [AP246] ([NMeA]L[NMeAbu][NMeF]L[NMeL][NMeL]S(X8)[Sar][NMeL]D-Piperidide; lactam N-11) | 0.23
6 | CCCCN1CC(=O)N(C)[C@@H](Cc2ccccc2)C(=O)N(C)[C@@H](CC(C)C)C(=O)N[C@@H](CCc2ccc(C(=O)NC)c(OC)c2)C(=O)N(C)[C@@H](CC(C)C)C(=O)N[C@H](C(=O)N2CCCCC2)CC(=O)N(C)CC(=O)N(C)[C@@H](CC(C)C)C(=O)N[C@@H]([C@@H](C)CC)C(=O)N(C)[C@@H](CC(C)C)C(=O)N[C@@H]([C@@H](C)O)C1=O [AP207] ([Sar][NMeL]I[NMeL]T[NBuGly][NMeF][NMeL][hPhe(3-OMe,4-CONHMe)][NMeL]D-Piperidide; lactam N-11) | 0.51
7 | CCCCN1CC(=O)N(C)[C@@H](C(C)C)C(=O)N[C@@H](COC(C)(C)C)C(=O)N(C)[C@@H](Cc2ccccc2)C(=O)N(C)[C@@H](CC(C)C)C(=O)N[C@H](C(=O)N2CCCCC2)CC(=O)N[C@H](C(C)C)C(=O)N(C)[C@@H](Cc2ccccc2)C(=O)N[C@@H](COCC[C@@H](C)O)C(=O)N(C)[C@@H](CC(C)C)C(=O)N[C@@H]([C@@H](C)O)C1=O [AP108] ([dV][NMeF]S(Butyl(3R-OH))[NMeL]T[NBuGly][NMeV]S(tBu)[NMeF][NMeL]D-Piperidide; lactam N-11) | 0.81
8 | CCCCN1CC(=O)N(C)[C@@H](Cc2ccccc2)C(=O)N(C)[C@@H](CC(C)C)C(=O)N[C@@H](CC(C)C)C(=O)N(C)[C@@H](CC(C)C)C(=O)N[C@H](C(=O)N2CCCCC2)CC(=O)N(C)CC(=O)N(C)[C@@H](CC(C)C)C(=O)N[C@H](CCc2ccc(C(=O)NC)c(OC)c2)C(=O)N(C)[C@@H](CC)C(=O)N[C@@H]([C@@H](C)O)C1=O [AP214] ([Sar][NMeL][dhPhe(4-CONHMe,3-OMe)][NMeAbu]T[NBuGly][NMeF][NMeL]L[NMeL]D-Piperidide; lactam N-11) | 0.84
9 | CC(C)C[C@H]1C(=O)N[C@H](C(=O)N2CCCCC2)CC(=O)N(C)CCCC(=O)N(C)[C@@H](CC(C)C)C(=O)N[C@@H](Cc2ccc(O)c(F)c2)C(=O)N(C)[C@@H](CC(C)C)C(=O)N(C)[C@@H](Cc2ccccc2)C(=O)N[C@@H](COC(C)(C)C)C(=O)N(C)[C@@H](CC(C)C)C(=O)N[C@@H]([C@@H](C)O)C(=O)N(C)CC(=O)N1C [pd114] ([NMeGABA][NMeL][Tyr(3-F)][NMeL][NMeF]S(tBu)[NMeL]T[Sar][NMeL]D-Piperidide; lactam N-11) | 0.17
